SMILES strings stand for the structures.

Here are results for three compounds from US20090197922A1, “COMPOSITIONS AND METHODS FOR TREATING PULMONARY HYPERTENSION” (The University of Chicago, priority 2006, published 2009).

Data set [1] has as its system hypoxia-induced model of pulmonary hypertension in Dahl SS rats. In words: Echocardiography in hypoxia/SU5416 model of pulmonary hypertension. It counts as in vivo, rat. Details: CO (PA): unit not given beside the values; RVAW / LVPW / CO (Ao) / MPA: unit not given here. Conditions: echocardiogram. As to the method: As part of the spectrum of sorafenib's pharmacologic activity overlaps with SU5416, a study was performed to determine whether sorafenib had similar effects or with additional mechanisms of inhibitory activity could counteract the effects of SU5416. […] Echocardiograms were performed on all rats at the start of the study. Except for the normoxia group, all rats were maintained in a hypoxia chamber with a partial pressure of oxygen of 10% FiO2 for the duration of the study. Rats in the two SU5416 groups received one subcutaneous injection of SU5416 at the start of the study (20 mg/kg). Stock sorafenib solutions were prepared every three days, crushing and dissolving sorafenib tablets in EL/ethanol (50:50; Sigma Cremophor EL, 95% ethyl alcohol) at final concentration of 4 mg/mL, protected from light exposure and stored at room temperature. Final dosing solutions were prepared on the day of use by dilution of the stock solution to 1 mg/mL with water and administered by gavage to the rats daily. After 3 weeks, all rats had echocardiography and hemodynamic studies. Organ and blood specimens were obtained for further evaluation. […] RV 3DE measurements were also determined (diameters+area), A=RV major diameter, B=RV annulus diastolic diameter & area, C=RV at ⅓ RV major diameter & area, D=RV at ⅔ RV major diameter & area.
(§1) Echocardiograms were performed on all rats at the start of the experiment. Except for the normoxia group, all rats were maintained in a hypoxia chamber with a partial pressure of oxygen of 10% FiO2 for the duration of the experiment. Rats in the 2 SU5416 groups received one subcutaneous injection of SU5416 at the start of the experiment (20 mg/kg). Stock sorafenib solutions were prepared every three days, crushing and dissolving sorafenib tablets in EL/ethanol (50:50; Sigma Cremophor EL, 95% ethyl alcohol) at final concentration of 4 mg/mL, protected from light exposure and stored at room temperature. Final dosing solutions were prepared on the day of use by dilution of the stock solution to 1 mg/mL with water and administered by gavage to the rats daily. After 3 weeks, all rats had echocardiography and hemodynamic studies. Organ and blood specimens were obtained for further evaluation.

For data set [2] the test system is unchanged. The settings on record: previously demonstrated; cited from earlier work.
Data set [3] in a line: Body weight of rats in hypoxia/SU5416 study. Conditions: Dahl SS rats. In kind it is in vivo, rat. As to the method: as §1, with “Fifteen Dahl Salt Sensitive strain rats were divided into 5 groups: normoxia+vehicle (normal, healthy control), hypoxia+vehicle (hypoxia control), hypoxia+SU5416 (positive control), hypoxia+sorafenib (safety comparison with SU5416), and hypoxia+sorafenib+SU5416 (therapeutic activity assessment). Echocardiograms” for “Echocardiograms”

The subject of data set [4] is hypoxia-induced model of pulmonary hypertension in Dahl SS rats. In words: Hemodynamic study (pressures, RV/LV weights) in hypoxia/SU5416 model of pulmonary hypertension. It counts as in vivo, rat. As to the method: As part of the spectrum of sorafenib's pharmacologic activity overlaps with SU5416, a study was performed to determine whether sorafenib had similar effects or with additional mechanisms of inhibitory activity could counteract the effects of SU5416. Dahl Salt Sensitive rats were divided into 5 groups: normoxia+vehicle (normal, healthy control), hypoxia+SU5416 (positive control), hypoxia+sorafenib (safety comparison with SU5416), and hypoxia+sorafenib+SU5416 (therapeutic activity assessment). Echocardiograms were performed on all rats at the start of the study. Except for the normoxia group, all rats were maintained in a hypoxia chamber with a partial pressure of oxygen of 10% FiO2 for the duration of the study. Rats in the two SU5416 groups received one subcutaneous injection of SU5416 at the start of the study (20 mg/kg). Stock sorafenib solutions were prepared every three days, crushing and dissolving sorafenib tablets in EL/ethanol (50:50; Sigma Cremophor EL, 95% ethyl alcohol) at final concentration of 4 mg/mL, protected from light exposure and stored at room temperature. Final dosing solutions were prepared on the day of use by dilution of the stock solution to 1 mg/mL with water and administered by gavage to the rats daily. […] Organ and blood specimens were obtained for further evaluation. […] RV 3DE measurements were also determined (diameters+area), A=RV major diameter, B=RV annulus diastolic diameter & area, C=RV at ⅓ RV major diameter & area, D=RV at ⅔ RV major diameter & area.
Protocol includes an initial administration of SU5416 subcutaneously at 20 mg/kg followed daily by sorenfenib oral daily doses of 2.5 mg/kg. Some animals were exposed to chronic hypoxia (10% O2). The animals were divided into five experimental groups: hypoxia+sorafenib; hypoxia+SU5416+sorafenib, normoxia+vehicle control; Hypoxia+vehicle; and hypoxia+SU5416. PAP, RVSP, Echo, and DNA microarrays were used to measure various physiological and molecular biological parameters. FIG. 4 illustrates that hypoxia/SU5416-induces increases in right heart pressures and right heart hypertrophy (RV/LV+Septum).
as §1, with “Fifteen Dahl Salt Sensitive strain rats were divided into 5 groups: normoxia+vehicle (normal, healthy control), hypoxia+vehicle (hypoxia control), hypoxia+SU5416 (positive control), hypoxia+sorafenib (safety comparison with SU5416), and hypoxia+sorafenib+SU5416 (therapeutic activity assessment). Echocardiograms” for “Echocardiograms”, “After 3 weeks, all rats had echocardiography and hemodynamic studies.” left out

For data set [5] the following is noted: Wade et al., 2004; cited from earlier work.
For data set [6] the following is noted: room temperature and neutral pH; cited from earlier work.
A further data set concerns PAH patients. Conditions: case report, combination therapy with imatinib at 3 and 6 months; cited from earlier work.
The mark [7] stands for this setting: PRE (baseline at start of experiment).
[8] abbreviates: 3½ Wk hypoxia (10% FiO2), sorafenib daily 2.5 mg/Kg, SU5416 day zero 20 mg/kg, 2 experiments as one cohort.

In the case of `Cc1cc(C)c(/C=C2\C(=O)Nc3ccccc32)[nH]1` [SU5416], in data set [1] (POST (after 3 weeks hypoxia)), the “CI (Ao)” value came out at 0.82 ± 0.22, the “CI(PA)” value worked out at 0.87 ± 0.14, the “CO (Ao)” value is given as 261 ± 55 and the “CO (PA)” value came out at 279 ± 69. For the same compound, in data set [1] (POST (after 3 weeks hypoxia)), the “FS (%)” value was 63 ± 4%, the “LV Mass (gram)” value is recorded as 1.25 ± 0.33 gram, the LVPW amounted to 0.16 ± 0.02 and the MPA amounted to 0.41 ± 0.05. In addition, in data set [1] (POST (after 3 weeks hypoxia)), the “PA PG (mmHg)” value is reported as 2.05 ± 0.92 mmHg, the RVAW is 0.16 ± 0.03 and the “TV max PG (mmHg)” value worked out at 5.63 ± 4.07 mmHg. Besides, in data set [1] (setting [7]), the “CI (Ao)” value is on record as 0.95 ± 0.06, the “CI(PA)” value is given as 1.21 ± 0.26, the “CO (Ao)” value was 310 ± 10 and the “CO (PA)” value is given as 400 ± 99. In addition, in data set [1] (setting [7]), the “FS (%)” value worked out at 71 ± 11%, the “LV Mass (gram)” value was 1.30 ± 0.14 gram, the LVPW was 0.16 ± 0.04 and the MPA stood at 0.45 ± 0.01. In data set [1] (setting [7]), the “PA PG (mmHg)” value is listed as 3.65 ± 2.76 mmHg and the RVAW amounted to 0.07. Besides, in data set [2], the “effect on pulmonary hypertension in hypoxic rats (previous reports)” value was “exacerbate pulmonary hypertension”. Also, in data set [3] (POST (after 3 weeks hypoxia)), the “Wt” value is listed as 324 ± 22 g. For the same compound, the “Wt” value in data set [3] (setting [7]) came to 328 ± 11 g. For the same compound, in data set [4] (setting [8]), the “BP mmHg (+/−) SE” value was 78 +/− 4 mmHg, the “PA mmHg (+/−) SE” value was 33 +/− 3 mmHg and the “RVSP mmHg (+/−) SE” value is 30 +/− 4 mmHg. The “development of pulmonary hypertension (right ventricular and pulmonary artery pressures, right ventricle/left ventricular weights)” value in data set [4] (hypoxia 10% FiO2, 3 weeks, SU5416 20 mg/kg once, sorafenib by gavage daily) is “developed pulmonary hypertension”.
By half-life is commonly meant the time needed for the level to fall by half in the phase considered. Turning to `CCCCC[C@H](O)CC[C@@H]1[C@H]2Cc3cccc(OCC(=O)O)c3C[C@H]2C[C@H]1O` [Treprostinil], the half-life in data set [5] was 3 to 4 h. For the same compound, the chemical stability result in data set [6] is “chemically stable at room temperature and neutral pH”.
Regarding `Cc1ccc(NC(=O)c2ccc(CN3CCN(C)CC3)cc2)cc1Nc1nccc(-c2cccnc2)n1` [imatinib], the “improvement in 6MW” value in the data set with PAH patients was 60%.
